# According to BindingDB's records for patent US11286268 (eFFECTOR Therapeutics, Inc., 2022):
# Molecular target: Eukaryotic translation initiation factor 4E (Homo sapiens, UniProt P06730)
# Assay: Fluorescence Polarization Assay
# Procedure: eIF4E protein was pre-incubated with EDA-m7GDP-ATTO-550 in FPB at 2xconcentrations for 5 minutes prior to the addition of compounds. Compounds (100x) were prepared using 3-fold serial dilutions in 100% DMSO, and subsequently diluted 1:50 in FPB to produce 2x stocks. 50 ul of 2x eIF4E/EDA-m7GDP-ATTO-550 were transferred to the wells of a 96-well half-area black flat bottom polystyrene plate. 50 ul of 2x test compound were added, and binding reactions were allowed to equilibrate for 30 minutes at room temperature while protected from light. The fluorescent polarization signal was detected using a Victor 2 multi-label counter (Perkin Elmer) and the concentration necessary to achieve inhibition of eIF4E/EDA-m7GDP-ATTO-550 binding by 50% (IC50) was calculated using data from an 8-point compound dilution series.
# Eukaryotic translation initiation factor 4E, sequence (P06730 whole entry): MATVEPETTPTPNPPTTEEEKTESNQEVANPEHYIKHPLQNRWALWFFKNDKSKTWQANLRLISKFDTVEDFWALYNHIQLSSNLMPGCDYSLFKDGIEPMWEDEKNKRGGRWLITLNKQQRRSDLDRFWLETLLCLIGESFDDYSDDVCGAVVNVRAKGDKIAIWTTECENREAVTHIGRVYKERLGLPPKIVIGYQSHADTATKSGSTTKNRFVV
row,Structure (SMILES),IC50 [nM]
1,"N#Cc1ccc(OCCn2cnc3cnc(C#N)cc3c2=O)c(-c2cccc(C(=O)O)c2)c1 [US11286268, Compound 2026]",656
2,"Cc1nc2cnc(NC3CC[N+](C)(CC(F)F)CC3)c(C#N)c2c(=O)n1CC#Cc1ccc(Cl)cc1-c1ccnc2c(C(=O)O)csc12 (stereo not drawn) [US11286268, Compound 1663]",14.1
3,"Cc1nc2cnc(N(C)C3CCN(CC(C)(F)F)CC3)c(C#N)c2c(=O)n1CC#Cc1ccc(Cl)cc1-c1ccnc2c(C(=O)NS(=O)(=O)C(F)(F)F)csc12 [US11286268, Compound 1603]",2.12
4,"CCN(c1ncc2nc(C)n(CC#Cc3ccc(Cl)cc3-c3ccnc4c(C(=O)NS(=O)(=O)C5COC5)csc34)c(=O)c2c1C#N)C1CCN(CC(F)(F)C(F)F)CC1 [US11286268, Compound 1608]",6.59
5,"CCN(c1ncc2nc(C)n(CC#Cc3ccc(Cl)cc3-c3ccnc4c(C(=O)NS(=O)(=O)c5ccccn5)csc34)c(=O)c2c1C#N)C1CCN(CC(F)(F)C(F)F)CC1 [US11286268, Compound 1609]",4.88
6,"CCN(c1ncc2nc(C)n(CC#Cc3ccc(Cl)cc3-c3ccnc4c(C(=O)NS(=O)(=O)CF)csc34)c(=O)c2c1C#N)C1CCN(C2COC2)CC1 [US11286268, Compound 1743]",6.87
7,"Cc1nc2cc(C(F)(F)F)cc(C#N)c2c(=O)n1CCOc1ccc(Cl)cc1-c1cc(C(C)C)nc2c(C(=O)O)csc12 [US11286268, Compound 1902]",84.2

# Continued, values first:
row,IC50 [nM],Structure (SMILES)
1,12.8,"Cc1nc2cnc(N3CCN(C4CC4)C(C(F)F)C3)c(C#N)c2c(=O)n1CCOc1ccc(Cl)cc1-c1ccnc2c(C(=O)O)csc12 (stereo not drawn) [US11286268, Compound 1439]"
2,34.4,"Cc1nc2cnc(N(C)C3CCN(CC(F)F)CC3)c(C#N)c2c(=O)n1CCOc1ccc(Cl)cc1-c1ccnc2c(C(=O)O)csc12 [US11286268, Compound 1318]"
3,26.4,"Cc1nc2cnc(N3CC4(C3)CN(C3(C)CC(F)(F)C3)C4)c(C#N)c2c(=O)n1CCOc1ccc(Cl)cc1-c1ccnc2c(C(=O)O)csc12 [US11286268, Compound 1435]"
4,10.6,"Cc1nc2cnc(N(C)CC3CCN(CC(F)F)CC3)c(C#N)c2c(=O)n1CC#Cc1ccc(Cl)cc1-c1ccnc2c(C(=O)O)csc12 [US11286268, Compound 1541]"
5,69,"Cc1nc2cnc(C(=O)C3CCN(CC(F)F)CC3)c(C#N)c2c(=O)n1CCOc1ccc(Cl)cc1-c1ccnc2c(C(=O)O)csc12 [US11286268, Compound 1440]"
6,37.3,"Cc1nc2cnc(N3CC4(C3)CN(C3CCC3)C4)c(C#N)c2c(=O)n1CCOc1ccc(Cl)cc1-c1ccnc2c(C(=O)O)csc12 [US11286268, Compound 1437]"
